From patent US20060009433A1, “Neuroprotective spirostenol pharmaceutical compositions” (priority 2003, published 2006)
Entries after “also recorded” stand apart in the source; their conditions may differ.

What was measured:
[1] = tested on: rat PC12 neuronal cells; assay: MTT assay, Aβ1-42-induced cytotoxicity in PC12 cells (Example I)
[2] = target: T1, Aβ17-40 (Homo sapiens, UniProt P05067); assay: CPBBA, Aβ17-40; assay type: binding
T1 construct: purchased American Peptide Co. (Sunnyvale, Calif.)
Method: At the end of the incubation time, samples were separated by 1.5% agarose (Type I-B) gel electrophoresis and transferred to nitrocellulose membrane (Schleicher & Schuell, Keene, N.H.) in 10×SSC buffer. The membrane was exposed to tritium-sensitive screen and analyzed by phosphoimaging using the Cyclone Storage phosphor system (Packard BioScience, Meridien, Conn.). Image-densitometric analysis was performed using the OptiQuant software (Packard). […] Low molecular weight unincorporated 22i-hydroxycholesterol is separated and eliminated during electrophoresis.

[3] = tested on: NT2 cells; assay: BrdU assay, NT2 cell proliferation; assay type: cell-based, human
[4] = tested on: PC12 cells; assay: Cellular ATP levels (ATPLite-M) in Aβ-treated PC12 cells; assay type: cell-based, rat; details: 0.1 and 1.0 μM Aβ
Method: (§1) PC12 cells (rat pheochromocytoma neurons) from ATCC (Manassas, Va.) were cultured at 37° C. and 5% CO2 in RPMI 1640 medium devoid of glutamine and supplemented with 10% fetal bovine serum and 5% horse serum. Yao Z, Drieu K and Papadopoulos V., The Gingko biloba extract EGb 761 rescues PC12 neuronal cells from β-amyloid-induced cell death by inhibiting the formation of (3-amyloid-derived diffusible neurotoxic ligands, Brain Res, 889, 181-190 (2001). Cells were seeded in 96-well plates (8×10^4 cells/well). After an overnight period of incubation, increasing concentrations of aggregated Aβ (0.1, 1 and 10 μM) were added to the cells in the presence or absence of the indicated concentrations of the SP compounds to be tested. After 72-hours incubation time various parameters, markers of cell viability, were determined. Mouse MA-10 tumor Leydig cells were maintained at 37° C. in DMEM/Ham's F12 (Biofluids, Rockville, Md.) medium supplemented with 5% heat-inactivated fetal calf serum and 2.5% horse serum in 5% CO2. Cells were plated on 96-well plates at the density of 2.5×10^4 cells/well for overnight. The cells were stimulated with the indicated concentrations of the various SP compounds in 0.2 ml/well serum-free medium for 2 hours. The culture medium was collected and tested for progesterone production by radioimmunoassay.
Cellular ATP concentrations were measured using the ATPLite-M™ luminescence assay (Packard BioSciences Co.). For this assay, cells were cultured on black 96-well ViewPlate™ and the ATP concentrations were measured on a TopCount NXT™ counter (Packard BioSciences Co.) following the recommendations of the manufacturer.

[5] = tested on: human NT2 cells; assay: MTT assay, glutamate-induced toxicity in NT2 cells; assay type: cell-based; details: 5 mM glutamate, three days; 1 to 50 μM compound; data not shown
[6] = tested on: NT2 cells; assay: Expression of GFRα receptor proteins in NT2 cells (immunoblot); assay type: cell-based, human; details: 25 μM; 6 days
Method: Cells were fixed with newly prepared 3.7% formaldehyde for 15 minutes and blocked by blocking reagent (Zymed Laboratories, San Francisco, Calif., USA). Inuunostaining was performed using rabbit anti-NF200, anti-NF145 and anti-NF70 (all at 1:200), and goat anti-GFRα1, anti-GFRα2 and anti-GFRα3 (all at 1:100); Santa Cruz Biotechnology (Santa Cruz, Calif., USA). All antibodies were used at 200 μg/ml. After overnight incubation at 4° C., the immunoreactivity was detected using horseradish peroxidase-conjugated anti-rabbit or anti-mouse IgG for 1 hour at room temperature and visualized using AEC.
Cells were then washed with phosphate-buffered saline (PBS) and lysed with loading buffer. Proteins were resolved by sodium dodecyl sulfate polyacrylamide gel electrophoresis (SDS-PAGE) on 4-20% gradient acrylamide-bis-acrylamide gel at 125 V for 2 hours and electrotransferred onto nitrocellulose membranes. After blocking with 5% nonfat milk, the membranes were subjected to immunoblot analysis by incubation overnight with rabbit anti-NF200, anti-NF145 and anti-NF70 (all at 1:4000) (Chemicon International, Temecula, Calif., USA) and goat anti-GFRα1, anti-GFRα2 and anti-GFRα3 (all at 1:500) (200 μg/ml; Santa Cruz Biotechnology, Inc., Santa Cruz, Calif., USA), goat anti-rabbit or rabbit anti-goat IgG-horseradish peroxidase being used as the secondary antibody (1:5000) (Zymed Laboratories, San Francisco, Calif., USA). Protein bands were visualized using ECL reagents (Amersham Pharmacia Biotech, Piscataway, N.J., USA). Image-densitometric analyses of the immunoreactive protein bands were performed using OptiQuant-image analysis software (Packard BioScience, Meriden, Conn., USA). Glyceraldehyde-3-phosphate dehydrogenase (GAPPH) served as an internal standard.

[7] = tested on: PC12 cells; assay: Membrane potential (CytoLite luminescence) in Aβ-treated PC12 cells; assay type: cell-based, rat
Method: as §1
Cells viability was also assessed using the luminescence-based kit CytoLite™ (Packard BioScience Co.) according to the recommendations of the manufacturer. Briefly, cells were cultured and treated in 96-well plates and after 72-hours incubation time, 25 μl of Activator solution was added to the cells followed by 150 μl of Amplifier solution. Luminescence was measured on a TopCount NXT™ counter (Packard BioSciences Co.) following a 5 minute precount delay.

[8] = tested on: NT2 cells; assay: NT2 cell differentiation, phase-contrast morphology; assay type: cell-based, human; details: 25 μM; 3, 6 and 12 days (comparators 6 days)
[9] = tested on: NT2 cells; assay: LDH and MTT assays, NT2 cell viability

T1 sequence (P05067 688-711 limits assumed): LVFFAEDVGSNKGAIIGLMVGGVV

CC(C)CC[C@@H](O)[C@@H](C)[C@H]1CC[C@H]2[C@@H]3CC=C4C[C@@H](O)CC[C@]4(C)[C@H]3CC[C@]12C [SP222, 22R-hydroxycholesterol]
rescue from 25 μM Aβ-induced cytotoxicity ([1]; MTT, 25 μM Aβ1-42): rescue all the cells; also recorded: full protection | cells rescued in the presence of 50 μM Aβ ([1]; MTT, 50 μM Aβ1-42): 50% | PC12 cell viability, steroid alone ([1]; MTT, absence of Aβ): did not affect PC12 cell viability | IC50 ([1]; Rattus norvegicus, PC-12, read-out: IC50 of protection from Aβ-induced toxicity): 10 µM | protection by pretreatment followed by treatment with Aβ ([1]; pretreatment of PC12 cells, data not shown): failed to offer any protection | protection against Aβ oligomer-induced toxicity ([1]; soluble Aβ (oligomers), not shown): protected | binding to Aβ17-40 ([2]; CPBBA): binds | 22R-hydroxycholesterol-binding site in Aβ ([2]; CPBBA with various Aβ synthetic peptides): amino acids 17-40 of Aβ | NT2 cell proliferation at 25 μM ([3]; 25 μM): significantly inhibited | NT2 cell proliferation at 50 μM ([3]; 50 μM): significantly inhibited | reversal of Aβ-induced decrease in ATP levels [4]: did not block | protection against glutamate-induced decrease in cell viability [5]: failed to protect the cells | decrease of GFRα3 protein expression [6]: about 16% | expression of GFRα1 [6]: no significant effect | increase of GFRα2 protein expression over the control level [6]: 45% | protection against 0.1 μM Aβ, membrane potential luminescence ([7]; 0.1 μM Aβ): protected | protection against the two highest concentrations of Aβ, membrane potential luminescence ([7]; 1.0 and 10.0 μM Aβ): failed to do so | effect on NT2 cell morphology (differentiation) [8]: induced morphologic changes | cytotoxicity at high concentrations ([9]; LDH and MTT, 25-50 μM, 3-day treatment): cytotoxic | concentration affecting viability of undifferentiated NT2 cells ([9]; MTT): > 10 µM
